# What was measured:
# [1] = biological target: T1, NIH3T3 cells expressing the full length KDR receptor (Homo sapiens, UniProt P35968); experiment: Cell mechanistic assay - Inhibition of 3T3 KDR phosphorylation; type: cell-based; details: VEGF (30 ng / ml) stimulated KDR phosphorylation in NIH3T3 cells, 30 minutes preincubation
# T1 construct: NIH3T3 cells expressing the full length KDR receptor; expressed in transfected cells; host or cells: NIH3T3 cells (G418 selection)
# Description: NIH3T3 cells expressing the full length KDR receptor were grown in DMEM (Life Technologies, Inc., Grand Island, NY) supplemented with 10% newborn calf serum, low glucose, 25 mM /L sodium pyruvate, pyridoxine hydrochloride and 0.2 mg/ ml of G418 (Life Technologies Inc., Grand Island, NY). The cells were maintained in collagen I-coated T75 flasks (Becton Dickinson Labware, Bedford, MA) in a humidified 5% CO2 atmosphere at 37°C.
# Fifteen thousand cells were plated into each well of a collagen 1-coated 96-well plate in the DMEM growth medium. Six hours later, the cells were washed and the medium was replaced with DMEM without serum. After overnight culture to quiesce the cells, the medium was replaced by Dulbecco's phosphate-buffered saline (Life Technologies Inc., Grand Island, NY) with 0.1 % bovine albumin (Sigma Chemical Co., St Louis, MO). After adding various concentrations (0-300 nM) of test compounds to the cells in 1% final concentration of DMSO, the cells were incubated at room temperature for 30 minutes. The cells were then treated with VEGF (30 ng / ml) for 10 minutes at room temperature. Following VEGF stimulation, the buffer was removed and the cells were lysed by addition of 150 µl of extraction buffer (50 mM Tris, pH 7.8, supplemented with 10% glycerol, 50 mM BGP, 2 mM EDTA, 10 mM NaF, 0.5 mM NaVO4, and 0.3% TX-100) at 4°C for 30 minutes.
# To assess receptor phosphorylation, 100 microliters of each cell lysate was added to the wells of an ELISA plate precoated with 300 ng of antibody C20 (Santa Cruz Biotechnology, Inc., Santa Cruz , CA). Following a 60-minute incubation, the plate was washed and bound KDR was probed for phosphotyrosine using an anti-phosphotyrosine mAb clone 4G10 (Upstate Biotechnology, Lake Placid, NY). The plate was washed and wells were incubated with anti-mouse IgG/HRP conjugate (Amersham International plc, Buckinghamshire, England) for 60 minutes. Wells were washed and phosphotyrosine was quantitated by addition of 100 µl per well of 3,3',5,5' tetramethylbenzidine (Kirkegaard and Perry, TMB Microwell 1 Component peroxidase substrate) solution. Color development was arrested by the addition of 100 µl 1% HCl based stop solution (Kirkegaard and Perry, TMB 1 Component Stop Solution).
# Optical densities (OD) were determined spectrophotometrically at 450 nm in a 96-well plate reader (SpectraMax 250, Molecular Devices). Background (no VEGF added) OD values were subtracted from all ODs and percent inhibition was calculated according to the equation: % Inhibition = ((OD(VEGF control)-OD(with test compound)) × 100)/(OD(VEGF control)-OD(no VEGF added)) [formula]
# IC50s were determined on some of the exemplary materials with a least squares analysis program using compound concentration versus percent inhibition. Compounds that have IC50 ≤ 20 nM in this assay include those of Examples 2, 6, 10, 11, 14, 23, 96, 101, 102, 103, 104, 105. Compounds that have IC50 values between 20 nM and 50 nM include those of examples 1, 4, 8, 9, 12, 13, 17, 24, 93, 98. Compounds that have IC50 values between 50 nM and 400 nM include those of examples 97, 99, and 100.
# KDR kinase domain = biological target: T2, KDR kinase domain (Homo sapiens, UniProt P35968); experiment: KDR Assay (ELISA of poly(Glu4;Tyr1) phosphorylation); type: biochemical; details: 3.3 µM ATP, 60 minutes at room temperature
# T2 construct: The cytosolic kinase domain of KDR kinase was expressed as a 6His fusion protein in Sf9 insect cells; 6His; made in house; host or cells: Sf9 insect cells
# T2 sequence (P35968 834-1162 limits assumed): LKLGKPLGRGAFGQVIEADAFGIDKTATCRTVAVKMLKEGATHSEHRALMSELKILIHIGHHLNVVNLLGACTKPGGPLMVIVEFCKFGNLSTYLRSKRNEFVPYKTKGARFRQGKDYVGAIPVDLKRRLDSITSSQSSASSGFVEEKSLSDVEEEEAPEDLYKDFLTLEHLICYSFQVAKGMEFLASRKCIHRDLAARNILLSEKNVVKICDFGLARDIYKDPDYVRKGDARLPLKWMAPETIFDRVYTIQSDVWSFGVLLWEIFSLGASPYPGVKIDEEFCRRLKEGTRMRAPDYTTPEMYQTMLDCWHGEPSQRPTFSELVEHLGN
# Description: The cytosolic kinase domain of KDR kinase was expressed as a 6His fusion protein in Sf9 insect cells. The KDR kinase domain fusion protein was purified over a Ni++ chelating column. Ninety-six well ELISA plates were coated with 5 µg poly(Glu4;Tyr1) (Sigma Chemical Co., St Louis, MO) in 100 µl HEPES buffer (20 mM HEPES, pH 7.5, 150 mM NaCl, 0.02% Thimerosal) at 4° overnight. Before use, the plate was washed with HEPES, NaCl buffer and the plates were blocked with 1% BSA, 0.1% Tween 20 in HEPES, NaCl buffer.
# Test compounds were serially diluted in 100% DMSO from 4 mM to 0.12 µM in half-log dilutions. These dilutions were further diluted twenty fold in H2O to obtain compound solutions in 5% DMSO. Following loading of the assay plate with 85 µl of assay buffer (20 mM HEPES, pH 7.5, 100 mM KCI, 10 mM MgCl2, 3 mM MnCl2, 0.05% glycerol, 0.005% Triton X-100, 1 mM -mercaptoethanol, with or without 3.3 µM ATP), 5 µl of the diluted compounds were added to a final assay volume of 100 µl. Final concentrations were between 10 µM, and 0.3 nM in 0.25% DMSO. The assay was initiated by the addition of 10µl (30 ng) of KDR kinase domain.
# The assay was incubated with test compound or vehicle alone with gentle agitation at room temperature for 60 minutes. The wells were washed and phosphotyrosines (PY) were probed with an anti-phosphotyrosine (PY), mAb clone 4G10 (Upstate Biotechnology, Lake Placid, NY). PY/anti-PY complexes were detected with an anti-mouse IgG/HRP conjugate (Amersham International plc, Buckinghamshire, England). Phosphotyrosine was quantitated by incubating with 100 µl 3, 3', 5, 5' tetramethylbenzidine solution (Kirkegaard and Perry, TMB Microwell 1 Component peroxidase substrate). Color development was arrested by the addition of 100 µl 1% HCl-based stop solution (Kirkegaard and Perry, TMB I Component Stop Solution).
# Optical densities were determined spectrophotometrically at 450 nm in a 96-well plate reader, SpectraMax 250 (Molecular Devices). Background (no ATP in assay) OD values were subtracted from all ODs and the percent inhibition was calculated according to the equation: % Inhibition = ((OD(vehicle control)-OD(with compound)) × 100)/(OD(vehicle control)-OD(no ATP added)) [formula]
# T1 sequence (P35968 20-1356): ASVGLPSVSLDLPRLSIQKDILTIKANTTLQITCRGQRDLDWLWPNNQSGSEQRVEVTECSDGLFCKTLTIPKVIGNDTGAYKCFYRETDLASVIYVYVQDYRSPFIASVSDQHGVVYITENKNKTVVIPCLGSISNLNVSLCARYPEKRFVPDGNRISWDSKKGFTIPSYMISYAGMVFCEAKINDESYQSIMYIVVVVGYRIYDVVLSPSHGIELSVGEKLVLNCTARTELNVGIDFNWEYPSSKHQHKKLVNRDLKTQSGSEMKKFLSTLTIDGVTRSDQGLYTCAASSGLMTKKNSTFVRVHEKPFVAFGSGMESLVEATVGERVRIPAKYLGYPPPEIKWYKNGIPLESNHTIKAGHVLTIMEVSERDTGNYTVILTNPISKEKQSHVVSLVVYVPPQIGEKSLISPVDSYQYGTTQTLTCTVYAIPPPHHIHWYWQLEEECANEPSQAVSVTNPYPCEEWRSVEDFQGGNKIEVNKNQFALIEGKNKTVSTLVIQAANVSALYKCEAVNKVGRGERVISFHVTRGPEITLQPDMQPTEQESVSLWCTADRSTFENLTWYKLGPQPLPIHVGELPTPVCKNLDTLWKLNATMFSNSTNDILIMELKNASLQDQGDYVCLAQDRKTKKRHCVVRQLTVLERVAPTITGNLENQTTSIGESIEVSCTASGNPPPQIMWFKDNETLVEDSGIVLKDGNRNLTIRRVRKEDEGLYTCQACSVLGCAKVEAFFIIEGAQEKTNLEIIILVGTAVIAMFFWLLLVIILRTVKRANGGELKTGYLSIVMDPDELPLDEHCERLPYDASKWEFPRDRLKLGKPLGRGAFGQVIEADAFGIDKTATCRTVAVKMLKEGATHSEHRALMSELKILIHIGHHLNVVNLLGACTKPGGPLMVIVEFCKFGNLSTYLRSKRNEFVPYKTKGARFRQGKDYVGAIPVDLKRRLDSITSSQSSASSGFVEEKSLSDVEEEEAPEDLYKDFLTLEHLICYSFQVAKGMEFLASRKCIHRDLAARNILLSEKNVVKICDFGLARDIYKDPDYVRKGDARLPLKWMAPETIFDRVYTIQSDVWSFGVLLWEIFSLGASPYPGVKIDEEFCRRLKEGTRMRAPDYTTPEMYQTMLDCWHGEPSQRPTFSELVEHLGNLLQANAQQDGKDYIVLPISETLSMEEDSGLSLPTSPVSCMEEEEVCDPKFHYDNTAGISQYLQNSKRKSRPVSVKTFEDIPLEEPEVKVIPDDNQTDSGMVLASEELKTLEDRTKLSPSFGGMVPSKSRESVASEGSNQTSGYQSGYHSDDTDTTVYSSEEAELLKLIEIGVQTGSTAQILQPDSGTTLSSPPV
IC50 [1],IC50 (KDR kinase domain),Structure (SMILES)
20 to 50 nM,–,"Clc1ccc(Nc2ncc(Sc3ccncc3)c3ccccc23)cc1 [Example 1, 1-(4-chlorophenylamino)-4-(4-pyridylthio)isoquinolinc]"
–,100 to 1000 nM,"c1ccc2c(Nc3ccc4ncsc4c3)ncc(Cc3ccncc3)c2c1 [Example 5, 1-(benzothiazol-6-ylamino)-4-(4-pyridylmethyl)-isoquinoline]"
20 to 50 nM,–,"NC(=O)c1cc(Cc2cnc(Nc3ccc(Cl)cc3)c3ccccc23)ccn1 [Example 12, 1-(4-chlorophenylamino)-4-(2-aminocarbonyl-4-pyridylmethyl)isoquinolin]"
20 to 50 nM,–,"Clc1ccc(Nc2nnc(Nc3ccc4ncsc4c3)c3sccc23)cc1 [Example 17, 4-(4-chlorophenylamino)-7-(benzothiazol-6-ylamino)thieno[2,3-d]pyridazine]"
–,≤ 100 nM,"c1nc2ccc(Nc3nnc(Nc4ccc5c(c4)CCC5)c4ccsc34)cc2s1 [Example 18, 4-(indan-5-ylamino)-7-(benzothiazol-6-ylamino)thieno-[2,3-d]pyridazine]"
–,100 to 1000 nM,"COc1ccc(Nc2nnc(OCc3ccncc3)c3occc23)cc1 [Example 21, 4-(4-methoxyphenylamino)-7-(4-pyridylmethoxy)furo-[2,3-d]pyridazine]"
–,100 to 1000 nM,c1cc2c(Nc3ccc4ncsc4c3)nnc(Nc3ccc4ncsc4c3)c2o1 [Example 28]
–,100 to 1000 nM,CNC(=O)c1cc(COc2nnc(Nc3ccc(N(C)C(C)=O)cc3)c3ccoc23)ccn1 [Example 45]
–,100 to 1000 nM,CNC(=O)c1cc(COc2nnc(Nc3ccc(N4CCOCC4)cc3)c3ccoc23)ccn1 [Example 46]
–,100 to 1000 nM,Cc1ccc(Nc2nnc(Nc3ccc4ncsc4c3)c3sccc23)cc1F [Example 79]
–,100 to 1000 nM,CN(C)CCNC(=O)c1cc(COc2nnc(Nc3ccc(Cl)cc3)c3ccoc23)ccn1 [Example 82A]
50 to 400 nM,100 to 1000 nM,CCN(c1ccc(Nc2nnc(Nc3ccc4ncsc4c3)c3ccccc23)cc1)C(C)C [Example 100]
≤ 20 nM,≤ 100 nM,Cc1ccc(Nc2nnc(Nc3ccc4ncsc4c3)c3ccccc23)cc1F [Example 104]

# The next lines start with the compound.
Structure (SMILES),IC50 [1],IC50 (KDR kinase domain)
"c1ccc2c(Nc3ccc4ncsc4c3)ncc(Sc3ccncc3)c2c1 [Example 3, 1-(benzothiazol-6-ylamino)-4-(4-pyridylthio)isoquinolin]",–,100 to 1000 nM
"Clc1ccc(Nc2ncc(Cc3ccncc3)c3ccccc23)cc1 [Example 4, 1-(4-chlorophenylamino)-4-(4-pyridylmethyl)isoquinoline]",20 to 50 nM,–
"CNC(=O)c1cc(Cc2cnc(Nc3ccc(Cl)cc3)c3ccccc23)ccn1 [Example 13, 1-(4-chlorophenylamino)-4-(2-methylaminocarbonyl-4-pyridylmethyl)isoquinoline]",20 to 50 nM,–
c1cc2c(Nc3ccc4[nH]ncc4c3)nnc(Nc3ccc4[nH]ncc4c3)c2s1 [Example 27],–,100 to 1000 nM
CNC(=O)c1cc(COc2nnc(Nc3cccc(Cl)c3)c3ccoc23)ccn1 [Example 35],–,100 to 1000 nM
CNC(=O)c1cc(COc2nnc(Nc3ccc(F)c(Cl)c3)c3ccoc23)ccn1 [Example 36],–,100 to 1000 nM
Clc1ccc(Nc2nnc(Nc3ccc4ncsc4c3)c3occc23)cc1 [Example 48],–,100 to 1000 nM
CNC(=O)c1cc(COc2nnc(Nc3ccccc3OC)c3ccoc23)ccn1 [Example 50],–,100 to 1000 nM
CNC(=O)c1cc(COc2nnc(Nc3ccc4[nH]ncc4c3)c3ccoc23)ccn1 [Example 55],–,100 to 1000 nM
Oc1ccc(Nc2nnc(OCc3ccncc3)c3occc23)cc1 [Example 58],–,100 to 1000 nM
O=C(c1cc(COc2nnc(Nc3ccc(Cl)cc3)c3ccoc23)ccn1)N1CCOCC1 [Example 61],–,100 to 1000 nM
OCc1cc(COc2nnc(Nc3ccc(Cl)cc3)c3ccoc23)ccn1 [Example 64],–,100 to 1000 nM
CNC(=O)c1cc(COc2nnc(Nc3ccc(F)cc3)c3ccsc23)ccn1 [Example 67],–,100 to 1000 nM
c1ccc2c(Nc3ccc4ncsc4c3)nnc(Nc3ccc4ncsc4c3)c2c1 [Example 93],20 to 50 nM,≤ 100 nM
Clc1ccc(Nc2nnc(Nc3ccc4nc[nH]c4c3)c3ccccc23)cc1 [Example 95],–,100 to 1000 nM
Brc1ccc2c(c1)CCN2c1nnc(Nc2ccc3ncsc3c2)c2ccccc12 [Example 97],50 to 400 nM,–
FC1(F)Oc2ccc(Nc3nnc(Nc4ccc5ncsc5c4)c4ccccc34)cc2O1 [Example 98],20 to 50 nM,–
c1ccc2c(Nc3ccc4ncsc4c3)nnc(Nc3ccc(N4CCCCC4)cc3)c2c1 [Example 99],50 to 400 nM,100 to 1000 nM

# — patent publication EP1228063B1, “SUBSTITUTED PYRIDINES AND PYRIDAZINES WITH ANGIOGENESIS INHIBITING ACTIVITY” (BAYER CORPORATION, priority 1999, dated 2001)
